Results taken from US6660752B2, “2,6-Substituted chroman derivatives useful as beta-3 adrenoreceptor agonists” (Bayer Pharmaceuticals Corporation, priority 2001, dated 2003).
Counter-ions that a name gives are not always drawn.

What follows are molecules tested against T1, human beta-3-adrenergic receptor (Homo sapiens, UniProt P13945) (assay: cAMP production (beta-3 agonist activity) in CHO cells stably expressing human beta-3-adrenergic receptor, cAMP SPA). Settings: CHO cells expressing full-length human beta-3-adrenergic receptor, 30 min incubation, 10 μM to 3 nM, read-out: Beta-3 Agonistic Activity: Compounds with EC50 values >1 μM.
T1 construct: stably express full-length human beta-3-adrenergic receptor; expressed in transfected cells; host or cells: Chinese hamster ovary (CHO) cells
T1 sequence (P13945 whole entry): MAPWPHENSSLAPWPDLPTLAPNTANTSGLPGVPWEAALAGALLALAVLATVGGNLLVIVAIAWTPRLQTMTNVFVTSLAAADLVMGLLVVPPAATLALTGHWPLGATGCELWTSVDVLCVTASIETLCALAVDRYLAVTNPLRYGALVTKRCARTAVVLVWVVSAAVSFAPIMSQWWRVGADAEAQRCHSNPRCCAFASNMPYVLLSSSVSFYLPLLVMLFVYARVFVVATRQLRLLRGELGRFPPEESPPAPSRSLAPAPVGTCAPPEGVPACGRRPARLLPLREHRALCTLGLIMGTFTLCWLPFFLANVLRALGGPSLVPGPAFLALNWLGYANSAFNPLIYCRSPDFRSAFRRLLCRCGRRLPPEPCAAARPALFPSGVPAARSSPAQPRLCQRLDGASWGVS
Assay type: cell-based
Experimental: Chinese hamster ovary (CHO) cells that stably express full-length human beta-3-adrenergic receptor (Granneman et al., Mol. Pharmacol. 44:264-270, 1993) can be used in the following procedure. The cell line is grown in 90% F12 nutrient mixture (HAM), 10% fetal bovine serum, 100 units/ml penicillin G sodium, […] streptomycin sulfate, and 2 mM L-glutamine at 37° C. in 95% air and 5% CO2. The transfected cell line is maintained with G-418 (800 μg/ml).
To test the agonist activity, cells are exposed to test compound and then assayed for cAMP production. CHO cells (100 μl) are plated at 5×10^4 cells/well of a 96-well plate (Costar, Cambridge, Mass.) to achieve 70% confluency the next day. After overnight incubation at 37° C., media is removed and the cells are treated for 30 minutes at 37° C. with KRP buffer (120 mM NaCl, 5.1 mM KCl, 0.6 mM MgSO4.7H2O, 0.8 mM CaCl2.H2O, […] phosphate buffer, […] Hepes pH 7.4)+[…] IBMX ([…]), +1% DMSO, +/− test compounds ([…]). Test compounds are assayed from 10 μM to 3 nM with 3-fold serial dilutions. The control agonist, isoproterenol (10 mM stock in 1.1 mM ascorbate), is assayed by 3-fold dilution beginning at 1 μM. After a 30-minute incubation with the test compounds, the buffer/compound mixture is removed. The cells are lysed and cAMP levels are measured using the cAMP SPA screening assay system (Amersham, Arlington Heights, Ill.). The cAMP values are then plotted to determine the EC50 of each compound tested.

Row | Compound | EC50 [µM]
1 | COc1cccc(-c2ccc3c(c2)CC[C@H](CNC[C@H](O)c2cccnc2)O3)c1 [Example 43] | > 1
2 | Nc1ccc([C@@H](O)CNC[C@H]2CCc3cc(C(=O)N4CCC[C@H]4C(=O)O)ccc3O2)cn1 [Example 363] | > 1
3 | Cc1ccc(-c2ccc3c(c2)CC[C@H](CNC[C@H](O)c2cccnc2)O3)cc1 [Example 45] | > 1

Same assay, conditions: CHO cells expressing full-length human beta-3-adrenergic receptor, 30 min incubation, 10 μM to 3 nM, read-out: Beta-3 Agonistic Activity: Compounds with EC50 values ≦1 μM

Row | Compound | EC50 [µM]
4 | O[C@@H](CNC[C@H]1CCc2cc(-c3ccccc3C(F)(F)F)ccc2O1)c1cccnc1 [Example 40] | ≤ 1
5 | COc1ccc(NC(=O)NS(=O)(=O)c2cccc(-c3ccc4c(c3)CC[C@H](CNC[C@H](O)c3cccnc3)O4)c2)cc1 [Example 334] | ≤ 1
6 | Nc1ccc([C@@H](O)CNC[C@H]2CCc3cc(C(=O)NC4(C(=O)O)CC4)ccc3O2)cn1 [Example 366, 1-({[(2R)-2-({[(2R)-2-(6-amino-3-pyridinyl)-2-hydroxyethyl]amino}methyl)-3,4-dihydro-2H-chromen-6-yl]carbonyl}amino)cyclopropanecarboxylic acid] | ≤ 1
7 | O=C(Nc1ccc(Cl)cc1)NS(=O)(=O)c1cccc(-c2ccc3c(c2)CC[C@H](CNC[C@H](O)c2cccnc2)O3)c1 [Example 335] | ≤ 1
8 | Nc1ccc([C@@H](O)CNC[C@H]2CCc3cc(-c4ccc(C(=O)O)cc4)ccc3O2)cn1 [Example 385, 4-[(2R)-2-({[(2R)-2-(6-amino-3-pyridinyl)-2-hydroxyethyl]amino}methyl)-3,4-dihydro-2H-chromen-6-yl]benzoic Acid] | ≤ 1
9 | O[C@@H](CNC[C@H]1CCc2cc(-c3ccc(F)cc3)ccc2O1)c1cccnc1 [Example 48] | ≤ 1
10 | O=S(=O)(Nc1cccnc1)c1cccc(-c2ccc3c(c2)CC[C@H](CNC[C@H](O)c2cccnc2)O3)c1 [Example 260] | ≤ 1
11 | COc1cc(C)nc(NS(=O)(=O)c2ccc(-c3ccc4c(c3)CC[C@H](CNC[C@H](O)c3cccnc3)O4)cc2OC(F)(F)F)n1 [Example 275, 4-[(2R)-2-({[(2R)-2-hydroxy-2-(3-pyridinyl)ethyl]amino}methyl)-3,4-dihydro-2H-chromen-6-yl]-N-(4-methoxy-6-methyl-2-pyrimidinyl)-2-(trifluoromethoxy)benzenesulfonamide] | ≤ 1
12 | O=C(Nc1cccc(C(F)(F)F)c1)NS(=O)(=O)c1cccc(-c2ccc3c(c2)CC[C@H](CNC[C@H](O)c2cccnc2)O3)c1 [Example 337] | ≤ 1
13 | O=C(NS(=O)(=O)c1cccc(-c2ccc3c(c2)CCC(CNC[C@H](O)c2cccnc2)O3)c1)c1ccc(Cl)cc1 (stereo partly drawn) [Example 301] | ≤ 1
14 | O=C(NS(=O)(=O)c1ccc(-c2ccc3c(c2)CC[C@H](CNC[C@H](O)c2cccnc2)O3)cc1)C1CC1 [Example 285, N-(cyclopropylcarbonyl)-4-[(2R)-2-({[(2R)-2-hydroxy-2-(3-pyridinyl)ethyl]amino}methyl)-3,4-dihydro-2H-chromen-6-yl]benzenesulfonamide] | ≤ 1
15 | COc1ccc(C(=O)NS(=O)(=O)c2cccc(-c3ccc4c(c3)CCC(CNC[C@H](O)c3cccnc3)O4)c2)cc1 (stereo partly drawn) [Example 303] | ≤ 1
16 | CCOCC(=O)NS(=O)(=O)c1ccc(-c2ccc3c(c2)CC[C@H](CNC[C@H](O)c2cccnc2)O3)cc1 [Example 286, N-(ethoxyacetyl)-4-[(2R)-2-({[(2R)-2-hydroxy-2-(3-pyridinyl)ethyl]amino}methyl)-3,4-dihydro-2H-chromen-6-yl]benzenesulfonamide] | ≤ 1
17 | O=S(=O)(Nc1cccnc1)c1ccc(-c2ccc3c(c2)CC[C@H](CNC[C@H](O)c2cccnc2)O3)cc1 [Example 253, 4-[(2R)-2-({[(2R)-2-hydroxy-2-(3-pyridinyl)ethyl]amino}methyl)-3,4-dihydro-2H-chromen-6-yl]-N-(3-pyridinyl)benzenesulfonamide] | ≤ 1
18 | O=C(NS(=O)(=O)c1ccc(-c2ccc3c(c2)CC[C@H](CNC[C@H](O)c2cccnc2)O3)cc1)C(C(F)(F)F)C(F)(F)F [Example 288] | ≤ 1
19 | O[C@@H](CNC[C@H]1CCc2cc(-c3cccc4ccccc34)ccc2O1)c1cccnc1 [Example 54] | ≤ 1
20 | Cc1ccc(Oc2cc(-c3ccc4c(c3)CC[C@H](CNC[C@H](O)c3cccnc3)O4)ccc2C(=O)O)cc1 [Example 195, 4-[(2R)-2-({[(2R)-2-hydroxy-2-(3-pyridinyl)ethyl]amino}methyl)-3,4-dihydro-2H-chromen-6-yl]-2-(4-methylphenoxy)benzoic acid] | ≤ 1
21 | N#Cc1cc([N+](=O)[O-])ccc1NS(=O)(=O)c1cccc(-c2ccc3c(c2)CC[C@H](CNC[C@H](O)c2cccnc2)O3)c1 [Example 259, N-(2-cyano-4-nitrophenyl)-3-[(2R)-2-({[(2R)-2-hydroxy-2-(3-pyridinyl)ethyl]amino}methyl)-3,4-dihydro-2H-chromen-6-yl]benzenesulfonamide] | ≤ 1
22 | O=C(O)c1ccc(-c2ccc3c(c2)CC[C@H](CNC[C@H](O)c2cccc(Cl)c2)O3)cc1 [Example 344, 4-[(2R)-2-({[(2R)-2-(3-chlorophenyl)-2-hydroxyethyl]amino}methyl)-3,4-dihydro-2H-chromen-6-yl]benzoic acid] | ≤ 1
23 | CC(C)Oc1cc(-c2ccc3c(c2)CC[C@H](CNC[C@H](O)c2cccnc2)O3)ccc1C(=O)O [Example 188, 4-[(2R)-2-({[(2R)-2-hydroxy-2-(3-pyridinyl)ethyl]amino}methyl)-3,4-dihydro-2H-chromen-6-yl]-2-isopropoxybenzoic acid] | ≤ 1
24 | CCC(=O)NS(=O)(=O)c1cccc(-c2ccc3c(c2)CC[C@H](CNC[C@H](O)c2cccnc2)O3)c1 [Example 305] | ≤ 1
25 | CC(=O)c1ccc(NS(=O)(=O)c2ccc(-c3ccc4c(c3)CC[C@H](CNC[C@H](O)c3cccnc3)O4)cc2)cc1 [Example 264] | ≤ 1
26 | O=C1CCc2cc(NS(=O)(=O)c3ccc(-c4ccc5c(c4)CC[C@H](CNC[C@H](O)c4cccnc4)O5)cc3)ccc21 [Example 258] | ≤ 1
27 | Cc1ccc(NC(=O)NS(=O)(=O)c2cccc(-c3ccc4c(c3)CC[C@H](CNC[C@H](O)c3cccnc3)O4)c2)cc1 [Example 324, 3-((1R)-1-hydroxy-2-{[((2R)-6-{3-[({[(4-methylphenyl)amino]carbonyl}amino)sulfonyl]phenyl}-3,4-dihydro-2H-chromen-2-yl)methyl]amino}ethyl)pyridine Hydrochloride] | ≤ 1
28 | COC(=O)c1ccc(-c2ccc3c(c2)CC[C@H](CNC[C@H](O)c2ccc(N)nc2)O3)cc1 [Example 381] | ≤ 1
29 | COc1ccc(Oc2cc(-c3ccc4c(c3)CC[C@H](CNC[C@H](O)c3cccnc3)O4)ccc2C(=O)O)cc1 [Example 196, 4-[(2R)-2-({[(2R)-2-hydroxy-2-(3-pyridinyl)ethyl]amino}methyl)-3,4-dihydro-2H-chromen-6-yl]-2-(4-methoxyphenoxy)benzoic acid] | ≤ 1
30 | Cc1ccc(C(=O)NS(=O)(=O)c2cccc(-c3ccc4c(c3)CC[C@H](CNC[C@H](O)c3cccnc3)O4)c2)cc1 [Example 299] | ≤ 1
31 | CN(C)CC(=O)NS(=O)(=O)c1cccc(-c2ccc3c(c2)CC[C@H](CNC[C@H](O)c2cccnc2)O3)c1 [Example 304] | ≤ 1
32 | Nc1ccc([C@@H](O)CNC[C@H]2CCc3cc(-c4cccc(C(=O)N5CCCC5)c4)ccc3O2)cn1 [Example 383] | ≤ 1
33 | O=C(Nc1ccccc1)NS(=O)(=O)c1cccc(-c2ccc3c(c2)CC[C@H](CNC[C@H](O)c2cccnc2)O3)c1 [Example 332] | ≤ 1
